The source of these data is ChEMBL document CHEMBL4130390, “Crystal structure of Porphyromonas gingivalis dipeptidyl peptidase 4 and structure-activity relationships based on inhibitor profiling” (Eur J Med Chem, 2017).

Active and inactive are the calls of the source. No cut-off for these calls is given here. Bounds are passed on as bounds.

The target in test [1] is Dipeptidyl peptidase IV (Porphyromonas gingivalis) (UniProt O31048). Put plainly: Inhibition of Porphyromonas gingivalis N-terminal His-tagged DPP4 expressed in Escherichia coli at 100 uM using Gly-Pro-p-nitroanilide as substrate relative to control.
Sequence of Dipeptidyl peptidase IV (Porphyromonas gingivalis) (O31048 20-723 limits assumed): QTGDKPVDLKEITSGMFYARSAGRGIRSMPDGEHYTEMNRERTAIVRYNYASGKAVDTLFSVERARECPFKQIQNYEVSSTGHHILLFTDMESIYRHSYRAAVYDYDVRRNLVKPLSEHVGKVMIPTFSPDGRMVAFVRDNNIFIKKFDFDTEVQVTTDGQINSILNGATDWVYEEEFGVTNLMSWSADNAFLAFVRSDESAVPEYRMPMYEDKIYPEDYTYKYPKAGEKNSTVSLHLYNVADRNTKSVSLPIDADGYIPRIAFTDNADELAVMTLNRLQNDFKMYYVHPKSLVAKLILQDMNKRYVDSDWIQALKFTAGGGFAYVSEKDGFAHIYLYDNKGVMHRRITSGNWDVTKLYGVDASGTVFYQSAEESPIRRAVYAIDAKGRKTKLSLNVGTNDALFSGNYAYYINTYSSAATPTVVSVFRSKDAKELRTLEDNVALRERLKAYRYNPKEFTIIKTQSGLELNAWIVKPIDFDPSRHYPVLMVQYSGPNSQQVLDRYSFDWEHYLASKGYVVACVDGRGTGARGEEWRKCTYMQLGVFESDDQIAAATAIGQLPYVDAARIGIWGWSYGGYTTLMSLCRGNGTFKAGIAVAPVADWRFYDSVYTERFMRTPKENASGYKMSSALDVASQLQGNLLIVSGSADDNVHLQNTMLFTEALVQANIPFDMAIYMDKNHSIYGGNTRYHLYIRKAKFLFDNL
Test [2] is described as follows: Selectivity index, ratio of IC50 for human DPP4 to IC50 for Porphyromonas gingivalis N-terminal His-tagged DPP4 expressed in Escherichia coli.
Test [3] addresses Dipeptidyl peptidase IV (Porphyromonas gingivalis) (UniProt O31048). Put plainly: Inhibition of Porphyromonas gingivalis N-terminal His-tagged DPP4 expressed in Escherichia coli at 10 uM using Gly-Pro-p-nitroanilide as substrate relative to control.
Test [4] concerns the target T1, Dipeptidyl peptidase IV (Porphyromonas gingivalis, UniProt O31048). Put plainly: Inhibition of Porphyromonas gingivalis N-terminal His-tagged DPP4 expressed in Escherichia coli using Gly-Pro-p-nitroanilide as substrate.
Test [5] concerns the target Dipeptidyl peptidase IV (Porphyromonas gingivalis) (UniProt O31048). As to the kind of experiment: Inhibition of Porphyromonas gingivalis N-terminal His-tagged DPP4 expressed in Escherichia coli using Gly-Pro-p-nitroanilide as substrate after 1 hr.
Test [6] has as its target Dipeptidyl peptidase 9 (Bos taurus, UniProt E1BI31). Put plainly: Inhibition of bovine DPP9.
Test [7] has as its target T1, Dipeptidyl peptidase IV. As to the kind of experiment: Inhibition of Porphyromonas gingivalis N-terminal His-tagged DPP4 expressed in Escherichia coli using Gly-Pro-p-nitroanilide as substrate preincubated for 15 mins.

T1 sequence (O31048 20-723 limits assumed): as above
Sequence of Dipeptidyl peptidase 9 (E1BI31 whole entry): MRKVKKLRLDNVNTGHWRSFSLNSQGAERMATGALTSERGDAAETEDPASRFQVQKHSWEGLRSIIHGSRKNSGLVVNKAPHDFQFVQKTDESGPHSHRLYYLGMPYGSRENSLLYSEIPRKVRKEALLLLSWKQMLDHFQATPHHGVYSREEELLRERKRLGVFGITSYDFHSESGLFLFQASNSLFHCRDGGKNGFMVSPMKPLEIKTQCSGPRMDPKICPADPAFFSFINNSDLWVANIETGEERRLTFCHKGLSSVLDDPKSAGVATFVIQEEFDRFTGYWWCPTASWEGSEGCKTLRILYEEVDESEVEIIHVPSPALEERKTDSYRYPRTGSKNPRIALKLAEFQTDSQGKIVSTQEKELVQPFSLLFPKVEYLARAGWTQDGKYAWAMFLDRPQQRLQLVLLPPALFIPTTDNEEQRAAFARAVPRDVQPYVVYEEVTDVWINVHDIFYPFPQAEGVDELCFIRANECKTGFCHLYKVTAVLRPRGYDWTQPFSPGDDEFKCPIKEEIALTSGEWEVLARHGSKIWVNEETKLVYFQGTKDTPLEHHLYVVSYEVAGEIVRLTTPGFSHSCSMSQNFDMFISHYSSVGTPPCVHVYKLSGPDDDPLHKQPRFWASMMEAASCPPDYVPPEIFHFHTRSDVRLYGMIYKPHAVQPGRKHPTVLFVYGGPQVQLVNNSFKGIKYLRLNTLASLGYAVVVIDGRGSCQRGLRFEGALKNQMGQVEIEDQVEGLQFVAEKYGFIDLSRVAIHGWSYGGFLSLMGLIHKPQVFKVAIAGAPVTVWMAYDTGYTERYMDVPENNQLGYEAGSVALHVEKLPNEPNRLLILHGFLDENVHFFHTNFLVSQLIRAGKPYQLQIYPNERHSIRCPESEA

As to `CC[C@@H](C)[C@H](N)C(=O)N1C[C@@H](N=[N+]=[N-])C[C@H]1C#N`, the results for the inhibition in test [1] and in test [3] were less than 50% and more than 50%, respectively. The Ratio IC50 in test [2] is 1.26 to 1.3. For the same compound, the IC50 in test [4] (read-out: IC50) was found to be 0.23 µM. Also, the inhibition result in test [5] was “Active”.

`N[C@@H](CCNCc1ccc(Cl)cc1)C(=O)N1CCCCC1` gave an inhibition in test [3] of more than 50%. In addition, the IC50 in test [4] (read-out: IC50) was more than 100 µM; in test [6], 76.6 µM.

For the compound `N#C[C@@H]1CCCN1C(=O)[C@@H](N)CCCCNC(=O)OCc1ccccc1`, the inhibition in test [1] was less than 50%; in test [3], more than 50%. In addition, in test [2], the Ratio IC50 was 0.02. Also, in test [4] (read-out: IC50), the IC50 was determined as 1.5 µM.

On to `NCCCCC(N)C(=O)N1CCSC1` (stereo not given), for which the inhibition is less than 50% in test [1] and more than 50% in test [3]. For the same compound, the Ratio IC50 in test [2] came out at 0.09. In addition, the IC50 in test [4] (read-out: IC50) was determined as 19 µM.

`N[C@@H](CCCCNC(=O)OCc1ccccc1)C(=O)N1CCCC1`: the inhibition in test [1] is less than 50%; in test [3], more than 50%. Also, the Ratio IC50 in test [2] was in the range of 0.7 to 0.71. In test [4] (read-out: IC50), the IC50 turned out to be 22 µM.

Consider `CNCCCCC(N)C(=O)N1CCCC1` (stereo not given), for which the values for the inhibition in test [1] and in test [3] were less than 50% and more than 50%, respectively. For the same compound, the Ratio IC50 in test [2] amounted to 0.52. Also, the IC50 in test [4] (read-out: IC50) was 9.4 µM.

Turning to `CCC(C)C(N)C(=O)N1CCCC1` (stereo not given), the inhibition in test [1] is less than 50%; in test [3], more than 50%. In test [2], the Ratio IC50 turned out to be 0.18. Also, the IC50 in test [4] (read-out: IC50) is 22 µM.

For `N#C[C@@H]1C[C@H](N=[N+]=[N-])CN1C(=O)[C@@H](N)CCC(=O)NCCN`, the inhibition was less than 50% in test [1] and more than 50% in test [3]. In addition, the Ratio IC50 in test [2] is 0.5. For the same compound, the IC50 in test [4] (read-out: IC50) was found to be 0.8 µM.

Regarding `CC1CC(N=[N+]=[N-])CN1C(=O)C(N)CCC(=O)N1CCN(Cc2ccc(F)cc2)CC1` (stereo not given), the results for the inhibition in test [1] and in test [3] were less than 50% and more than 50%, respectively. In addition, in test [2], the Ratio IC50 stood at 0.425. Besides, in test [4] (read-out: IC50), the IC50 was determined as 2.4 µM.

`N#C[C@@H]1C[C@H](N=[N+]=[N-])CN1C(=O)[C@@H](N)CCCCNCc1ccc2ccccc2c1`: the inhibition is less than 50% in test [1] and more than 50% in test [3]. In addition, the Ratio IC50 in test [2] fell in the range of 7.04 to 7.1. In addition, in test [4] (read-out: IC50), the IC50 was found to be 0.079 µM. The inhibition result in test [5] is “Active”.

As to `N#C[C@@H]1C[C@H](N=[N+]=[N-])CN1C(=O)[C@@H](N)CCC(=O)N1CCNCC1`, the inhibition in test [1] is less than 50%; in test [3] it was more than 50%. Further, the Ratio IC50 in test [2] is 1.2. Further, the IC50 in test [4] (read-out: IC50) was 0.48 µM.

As to `N#C[C@@H]1C[C@H](N=[N+]=[N-])CN1C(=O)[C@@H](N)CCCCN`, the inhibition was less than 50% in test [1] and more than 50% in test [3]. For the same compound, in test [2], the Ratio IC50 was in the range of 6.58 to 6.7. Besides, the IC50 in test [4] (read-out: IC50) turned out to be 0.33 µM.

As for `N#C[C@@H]1C[C@H](N=[N+]=[N-])CN1C(=O)[C@@H](N)CCCCNC(=O)OCc1ccccc1`, the inhibition in test [1] is less than 50%; in test [3], more than 50%. In addition, the Ratio IC50 in test [2] was 1.76 to 1.8. Further, the IC50 in test [4] (read-out: IC50) is 0.3 µM. In addition, in test [5], the inhibition result is “Active”.

With `N#C[C@@H]1CCCN1C(=O)CNC12CC3CC(CC(O)(C3)C1)C2` [VILDAGLIPTIN], the inhibition in test [3] is more than 50%. Moreover, the IC50 in test [4] (read-out: IC50) stood at 1.3 µM. In addition, the inhibition result in test [5] is “Active”. This compound also had a Ki in test [7] of 17 nM.

Consider `NC(CCCCN(Cc1ccc2ccccc2c1)Cc1ccc2ccccc2c1)C(=O)N1CCCC1` (stereo not given), for which the inhibition is less than 50% in test [1] and more than 50% in test [3]. For the same compound, the Ratio IC50 in test [2] turned out to be 1.2. Moreover, in test [4] (read-out: IC50), the IC50 turned out to be 3.5 µM.

As to `CC[C@H](C)[C@H](N)C(=O)N1C[C@@H](N=[N+]=[N-])C[C@H]1C#N`, the results for the inhibition in test [1] and in test [3] were less than 50% and more than 50%, respectively. Moreover, the Ratio IC50 in test [2] amounted to 1.1. In addition, in test [4] (read-out: IC50), the IC50 amounted to 0.31 µM.

Turning to `CC1CC(N=[N+]=[N-])CN1C(=O)C(N)CCC(=O)N1CCN(C(c2ccc(F)cc2)c2ccc(F)cc2)CC1` (stereo not given), the results for the inhibition in test [1] and in test [3] were less than 50% and more than 50%, respectively. For the same compound, the Ratio IC50 in test [2] came to 0.25. The IC50 in test [4] (read-out: IC50) was 8 µM.

For `NC(CCCCNCc1ccccc1)C(=O)N1CCCC1` (stereo not given), the inhibition in test [1] is less than 50%; in test [3] it was more than 50%. For the same compound, the Ratio IC50 in test [2] was determined as 1.2. Further, in test [4] (read-out: IC50), the IC50 stood at 3.1 µM.

On to `NC(CCCCNCc1ccccc1)C(=O)N1Cc2ccccc2C1` (stereo not given), for which the inhibition in test [1] was less than 50%; in test [3] it was more than 50%. Further, in test [2], the Ratio IC50 was more than 4.5. Further, in test [4] (read-out: IC50), the IC50 turned out to be 11 µM.

Turning to `CC#CCn1c(N2CCC[C@@H](N)C2)nc2c1c(=O)n(Cc1nc(C)c3ccccc3n1)c(=O)n2C` [LINAGLIPTIN], the results for the inhibition in test [1] and in test [3] were less than 50% and more than 50%, respectively. Further, the IC50 entry in test [4] was “IC50 10-100 uM”; in test [6] it was more than 100 µM.

In the case of `N#C[C@@H]1CCCN1C(=O)[C@@H](N)CCCCN`, the inhibition in test [1] was less than 50%; in test [3] it was more than 50%. The Ratio IC50 in test [2] was 0.16 to 0.2. In addition, the IC50 in test [4] (read-out: IC50) is 1.6 µM.

As to `NC(CC(=O)N1CCN(C(c2ccc(F)cc2)c2ccc(F)cc2)CC1)C(=O)N1Cc2ccccc2C1` (stereo not given), the results for the inhibition in test [1] and in test [3] were less than 50% and more than 50%, respectively. Also, in test [4], the IC50 result is on record as “IC50 10-100 uM”.

On to `CCC(C)C(N)C(=O)N1Cc2ccc(F)cc2C1` (stereo not given), for which the inhibition was less than 50% in test [1] and more than 50% in test [3]. Also, in test [4], the IC50 entry is given as “IC50 10-100 uM”.

As for `NC(CC(=O)N1CCN(C(c2ccccc2)c2ccc(Cl)cc2)CC1)C(=O)N1Cc2ccc(F)cc2C1` (stereo not given), the inhibition in test [1] was less than 50%; in test [3], more than 50%. Also, the Ratio IC50 in test [2] was more than 5.9. Moreover, the IC50 in test [4] (read-out: IC50) was found to be 17 µM.

In the case of `NC(CCCCNC(=O)OCc1ccccc1)C(=O)N1CCSC1` (stereo not given), the figures for the inhibition in test [1] and in test [3] were less than 50% and more than 50%, respectively. The Ratio IC50 in test [2] was 0.17. Also, in test [4] (read-out: IC50), the IC50 is 22 µM.

Consider `CCC(C)C(N)C(=O)N1CCSC1` (stereo not given), for which the inhibition in test [1] is less than 50%; in test [3], more than 50%. The IC50 entry in test [4] is “IC50 10-100 uM”.

For the compound `NC(CCCCN(Cc1ccccc1)Cc1ccccc1)C(=O)N1CCCC1` (stereo not given), the inhibition in test [1] was less than 50%; in test [3], more than 50%. In addition, the Ratio IC50 in test [2] stood at 0.88. For the same compound, the 50% inhibitory concentration (IC50) in test [4] (read-out: IC50) came to 3.4 µM.

On to `CCC(C)C(N)C(=O)N1CCC(Cl)C1` (stereo not given), for which the inhibition in test [1] was less than 50%; in test [3], more than 50%. In test [4], the IC50 entry was “IC50 10-100 uM”.

In the case of `CC(C)C(N)C(=O)N1CCCC1` (stereo not given), the inhibition was less than 50% in test [1] and more than 50% in test [3]. The IC50 in test [4] (read-out: IC50) was found to be 19 µM.

Regarding `CC#CCn1c(N2CCNCC2)nc2c1c(=O)n(Cc1nc(C)c3ccccc3n1)c(=O)n2C`, the inhibition in test [1] is less than 50%; in test [3] it was more than 50%. Besides, in test [2], the Ratio IC50 is less than 0.002. In addition, the IC50 entry in test [4] is “IC50 10-100 uM”.

For `CC(C)[C@H](N)C(=O)N1CCCC1B(O)O` (stereo not given in full), the inhibition is less than 50% in test [1] and more than 50% in test [3]. Further, the IC50 in test [4] (read-out: IC50) worked out at 0.14 µM.

Regarding `CC[C@H](C)[C@H](N)C(=O)N1CCCC1`, the results for the inhibition in test [1] and in test [3] were less than 50% and more than 50%, respectively. In test [4], the IC50 result is “IC50 10-100 uM”.

In the case of `NCCNC(=O)CCC(N)Cc1ccccc1` (stereo not given), the results for the inhibition in test [1] and in test [3] were less than 50% and more than 50%, respectively. The IC50 result in test [4] is “IC50 10-100 uM”.

Consider `NC(CC(=O)N1CCN(C(c2ccc(F)cc2)c2ccc(F)cc2)CC1)C(=O)N1Cc2ccc(F)cc2C1` (stereo not given), for which the inhibition is less than 50% in test [1] and more than 50% in test [3]. For the same compound, the Ratio IC50 in test [2] turned out to be 2.7. The IC50 in test [4] (read-out: IC50) was found to be 22 µM.
